This assay concerns the target T1, human GR (Homo sapiens, UniProt P04150).
T1 sequence (P04150 1-777): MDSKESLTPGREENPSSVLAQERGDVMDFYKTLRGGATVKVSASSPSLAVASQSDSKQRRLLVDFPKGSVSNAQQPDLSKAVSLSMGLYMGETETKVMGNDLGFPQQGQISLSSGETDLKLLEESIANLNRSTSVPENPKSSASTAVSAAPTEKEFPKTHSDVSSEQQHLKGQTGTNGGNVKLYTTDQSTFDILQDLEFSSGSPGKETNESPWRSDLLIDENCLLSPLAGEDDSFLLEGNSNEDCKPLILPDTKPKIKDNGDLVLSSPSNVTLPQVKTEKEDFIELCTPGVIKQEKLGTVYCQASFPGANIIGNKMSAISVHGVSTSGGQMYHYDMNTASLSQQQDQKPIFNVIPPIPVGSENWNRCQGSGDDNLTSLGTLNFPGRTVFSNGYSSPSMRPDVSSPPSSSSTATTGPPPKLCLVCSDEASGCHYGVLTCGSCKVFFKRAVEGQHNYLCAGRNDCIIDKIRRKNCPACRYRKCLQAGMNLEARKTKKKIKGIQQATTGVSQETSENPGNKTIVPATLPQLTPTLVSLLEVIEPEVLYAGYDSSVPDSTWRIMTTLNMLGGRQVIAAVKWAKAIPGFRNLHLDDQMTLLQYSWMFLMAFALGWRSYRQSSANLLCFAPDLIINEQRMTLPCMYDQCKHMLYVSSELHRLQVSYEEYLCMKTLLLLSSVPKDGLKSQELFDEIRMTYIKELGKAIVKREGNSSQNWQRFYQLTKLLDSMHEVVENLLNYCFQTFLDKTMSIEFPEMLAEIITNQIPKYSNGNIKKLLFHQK
Briefly: Transrepression Assay (GITAR), TNFα-β-lactamase reporter gene in U937 cells. The following applies: U-937; 100 nM dexamethasone = 100% activity; read-out: maximal activity in the transrepression assay. The assay is classed as cell-based. The arrangement: U937 cells contain an endogenous glucocorticoid receptor (GR); endogenous in cells; host or cells: U937 cells stably transfected with the TNF-α promoter/β-lactamase reporter only. The gist of the method:
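Reporter readout used CCF2-AM loading for 70–90 min at room temperature after overnight (~18 h, 37 °C) PMA (5 ng/ml final) and LPS (100 ng/ml final) stimulation of compound-treated (30–45 min) TNFα-β-lactamase U937 cells expressing native GR. Activity was normalised to 100 nM dexamethasone repression.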
On the technique in general: A reporter such as luciferase makes a cellular process visible.

Emax data for 18 molecules are collected here from US8119681B2, “2-[1-phenyl-5-hydroxy or methoxy-4alpha-methyl-hexahydrocyclopenta [ƒ]indazole-5-YL]ethyl phenyl derivatives as glucocorticoid receptor ligands” (Merck Sharp & Dohme Corp., priority 2006, dated 2012).

For `C[C@H](NS(=O)(=O)C1CC1)c1ccccc1CC[C@]1(O)CCC2=Cc3c(cnn3-c3ccc(F)cc3)C[C@@]21C` [Example 95, N-[(1S)-1-(2-{2-[(4αS,5R)-1-(4-fluorophenyl)-5-hydroxy-4α-methyl-1,4,4α,5,6,7-hexahydrocyclopenta[f]indazol-5-yl]ethyl}phenyl)ethyl]cyclopropanesulfonamide], the Emax was in the range of 5 to 100%. Then `C[C@@H](NS(=O)(=O)CC(F)(F)F)c1c(F)cccc1CC[C@]1(O)CCC2=Cc3c(cnn3-c3ccc(F)cc3)C[C@@]21C` [Example 96, 2,2,2-trifluoro-N-[(1R)-1-(2-fluoro-6-{2-[(4αS,5R)-1-(4-fluorophenyl)-5-hydroxy-4α-methyl-1,4,4α,5,6,7-hexahydrocyclopenta[f]indazol-5-yl]ethyl}phenyl)ethyl]ethanesulfonamide], with 5 to 100%; and `C[C@]12Cc3cnn(-c4ccc(F)cc4)c3C=C1CC[C@@]2(O)CCc1cccc(F)c1CNS(=O)(=O)CS(C)(=O)=O` [Example 97, N-(2-fluoro-6-{2-[(4αS,5R)-1-(4-fluorophenyl)-5-hydroxy-4α-methyl-1,4,4α,5,6,7-hexahydrocyclopenta[f]indazol-5-yl]ethyl}benzyl)-1-(methylsulfonyl)methanesulfonamide], with 5 to 100%; and `C[C@]12Cc3cnn(-c4ccc(F)cc4)c3C=C1CC[C@@]2(O)CCc1cccc(F)c1CNS(C)(=O)=O` [Example 98, N-(2-fluoro-6-{2-[(4αS,5R)-1-(4-fluorophenyl)-5-hydroxy-4α-methyl-1,4,4α,5,6,7-hexahydrocyclopenta[f]indazol-5-yl]ethyl}benzyl)methanesulfonamide], with 5 to 100%. With `C[C@H](NS(=O)(=O)CC(F)(F)F)c1c(F)cccc1CC[C@]1(O)CCC2=Cc3c(cnn3-c3ccc(F)cc3)C[C@@]21C` [Example 99, 2,2,2-trifluoro-N-[(1S)-1-(2-fluoro-6-{2-[(4αS,5R)-1-(4-fluorophenyl)-5-hydroxy-4α-methyl-1,4,4α,5,6,7-hexahydrocyclopenta[f]indazol-5-yl]ethyl}phenyl)ethyl]ethanesulfonamide], the Emax lay in the range of 5 to 100%. Then `C[C@]12Cc3cnn(-c4ccc(F)cc4)c3C=C1CC[C@@]2(O)CCc1cccc(F)c1C1(NS(=O)(=O)C2CC2)CC1` [Example 100, N-[1-(2-fluoro-6-{2-[(4αS,5R)-1-(4-fluorophenyl)-5-hydroxy-4α-methyl-1,4,4α,5,6,7-hexahydrocyclopenta[f]indazol-5-yl]ethyl}phenyl)cyclopropyl]cyclopropanesulfonamide], with 5 to 100%; and `C[C@]12Cc3cnn(-c4ccc(F)cc4)c3C=C1CC[C@@]2(O)CCc1cccc(F)c1[C@@H](NS(=O)(=O)CC(F)(F)F)C(F)(F)F` [Example 101, 2,2,2-trifluoro-N-[(1R)-2,2,2-trifluoro-1-(2-fluoro-6-{2-[(4αS,5R)-1-(4-fluorophenyl)-5-hydroxy-4α-methyl-1,4,4α,5,6,7-hexahydrocyclopenta[f]indazol-5-yl]ethyl}phenyl)ethyl]ethanesulfonamide], with 5 to 100%; and `C[C@]12Cc3cnn(-c4ccc(F)cc4)c3C=C1CC[C@@]2(O)CCc1cccc(F)c1C1(NS(=O)(=O)CC(F)(F)F)CC1` [Example 102, 2,2,2-trifluoro-N-[1-(2-fluoro-6-{2-[(4αS,5R)-1-(4-fluorophenyl)-5-hydroxy-4α-methyl-1,4,4α,5,6,7-hexahydrocyclopenta[f]indazol-5-102yl]ethyl}phenyl)cyclopropyl]ethanesulfonamide], with 5 to 100%.

In the case of `C[C@]12Cc3cnn(-c4ccc(F)cc4)c3C=C1CC[C@@]2(O)CCc1ccccc1CNCC1CC1` [Example 103, (4αS,5R)-5-[2-(2-{[(cyclopropylmethyl}amino]methyl}phenyl)ethyl]-1-(4-fluorophenyl)-4α-methyl-1,4,4α,5,6,7-hexahydrocyclopenta[f]indazol-5-ol], the Emax was 5 to 100%.

In the case of `C[C@]12Cc3cnn(-c4ccc(F)cc4)c3C=C1CC[C@@]2(O)CCc1ccccc1CNCC(F)(F)F` [Example 104, (4αS,5R)-1-(4-fluorophenyl)-4α-methyl-5-[2-[2-{[(2,2,2-trifluoroethyl)amino]methyl}phenyl)ethyl]-1,4,4α,5,6,7-hexahydrocyclopenta[f]indazol-5-ol], the Emax is 5 to 100%. As for `CC(=O)NCc1ccccc1CC[C@]1(O)CCC2=Cc3c(cnn3-c3ccc(F)cc3)C[C@@]21C` [Example 105, N-(2-{2-[(4αS,5R)-1-(4-fluorophenyl)-5-hydroxy-4α-methyl-1,4,4α,5,6,7-hexahydrocyclopenta[f]indazol-5-yl]ethyl}benzyl)acetamide], the figure is 5 to 100%; as for `CCNC(=O)Cc1ccccc1CC[C@]1(O)CCC2=Cc3c(cnn3-c3ccc(F)cc3)C[C@@]21C` [Example 106, N-ethyl-2-(2-{2-[(4αS,5R)-1-(4-fluorophenyl)-5-hydroxy-4α-methyl-1,4,4α,5,6,7-hexahydrocyclopenta[f]indazol-5-yl]ethyl}phenyl)acetamide], 5 to 100%.

Consider `CN(C)C(=O)Cc1ccccc1CC[C@]1(O)CCC2=Cc3c(cnn3-c3ccc(F)cc3)C[C@@]21C` [Example 108, 2-(2-{2-[(4αS,5R)-1-(4-fluorophenyl)-5-hydroxy-4α-methyl-1,4,4α,5,6,7-hexahydrocyclopenta[f]indazol-5-yl]ethyl}phenyl)-N,N-dimethylacetamide], for which the Emax was in the range of 5 to 100%. As for `C[C@]12Cc3cnn(-c4ccc(F)cc4)c3C=C1CC[C@@]2(O)CCc1ccccc1CC(=O)NC1CC1` [Example 109, N-cyclopropyl-2-(2-{2-[(4αS,5R)-1-(4-fluorophenyl)-5-hydroxy-4α-methyl-1,4,4α,5,6,7-hexahydrocyclopenta[f]indazol-5-yl]ethyl}phenyl)acetamide], the figure is 5 to 100%. Then `C[C@]12Cc3cnn(-c4ccc(F)cc4)c3C=C1CC[C@@]2(O)CCc1cccc(F)c1N1CCC1=O` [Example 110, 1-(2-fluoro-6-{2-[(4αS,5R)-1-(4-fluorophenyl)-5-hydroxy-4α-methyl-1,4,4α,5,6,7-hexahydrocyclopenta[f]indazol-5-yl]ethyl}phenyl)azetidin-2-one], with 5 to 100%; and `C[C@]12Cc3cnn(-c4ccc(F)cc4)c3C=C1CC[C@@]2(O)CCc1ccccc1N1CCCC1=O` [Example 111, 1-(2-{2-[(4αS,5R)-1-(4-fluorophenyl)-5-hydroxy-4α-methyl-1,4,4α,5,6,7-hexahydrocyclopenta[f]indazol-5-yl]ethyl}phenyl)pyrrolidin-2-one], with 5 to 100%. Then `C[C@]12Cc3cnn(-c4ccc(F)cc4)c3C=C1CC[C@@]2(O)CCc1cc(F)ccc1N` [Example 112, (4αS,5R)-5-[2-(2-amino-5-fluorophenyl)ethyl]-1-(4-fluorophenyl)-4α-methyl-1,4,4α,5,6,7-hexahydrocyclopenta[f]indazol-5-ol], with 5 to 100%; and `C[C@]12Cc3cnn(-c4ccc(F)cc4)c3C=C1CC[C@@]2(O)CCc1ccccc1NS(C)(=O)=O` [Example 115, N-(2-{2-[(4αS,5R)-1-(4-fluorophenyl)-5-hydroxy-4α-methyl-1,4,4α,5,6,7-hexahydrocyclopenta[f]indazol-5-yl]ethyl}phenyl)methanesulfonamide], with 5 to 100%.
